Results published in US20230364118A1, “RIBITOL TREATMENT” (priority 2020, published 2023).
Where two headings read alike, the source gives them in different places.

What was measured:
[1] = 28-day repeat-dose oral toxicokinetics; format: in vivo, Bama minipig; conditions: male, Bama, minipig, plasma, po; for Cmax: read-out: Cmax; for AUC(0-t): read-out: AUC0-24; for Tmax: median (range)
Procedure: Toxicokinetics of ribitol was evaluated as part of the 28-day toxicology study in male and female Bama minipig. […] Animals in control group were dosed for 28 days twice daily with the vehicle only (Purified Water). On Days 1 and 28, blood samples were collected at 0 (pre first dose), 0.5, 1, 2, 4, 6 (pre-second dose), 6.5, 7, 8, 10, 12, and 24 hours from all available animals.

Phase 2 patient study = format: in vivo, human; conditions: for average drop in fatigue (scale of 1 to 10): 90 days
Text: Ribitol is being tested in an ongoing Phase 2 study with 14 patients receiving doses of either 6 g once daily (QD), 6 g twice daily (BID), or 12 g BID. Data is available following 3 months of therapeutic exposure in 8 subjects (6 g QD, n=4, 6 g BID, n=4). […] All 12 subjects have shown decreases in creatine kinase from baseline. Younger, ambulatory patients started with higher baseline creatine kinase values and had the largest magnitude drops. Decreases were observable starting at day 8 with continued declines through day 90. Efficacy studies are ongoing. Improvements in 10-meter walk test (MWT) to test ambulation, NSAD for gross motor function, PUL2.0 for upper limb function, and spirometry for respiratory function have been observed (Table 17). […] Decreases in patient-reported muscle fatigue over the 90-day treatment period has been observed in 7 of 8 patients. These 7/8 patients have reported decreases as recorded in a daily diary and noted on a scale of 1 to 10 where 1 indicates no fatigue and a 10 is the maximum level of fatigue.

[2] = 1 g/kg, 1.0 g/kg/dose BID, Day 1, Male, mean ± SD
[3] = 2 g/kg/day, 1.0 g/kg/dose BID (2.0 g/kg/day, NOAEL), Day 28, Male

Structure (SMILES): OC[C@@H](O)[C@@H](O)[C@@H](O)CO [ribitol, (2R,3s,4S)-Pentane-1,2,3,4,5-pentol]
- Cmax ([1]; 1 g/kg, 1.0 g/kg/dose BID (2.0 g/kg/day, NOAEL), Day 28, Male): 475 µg/mL
- AUC(0-t) [1, 2]: 1930 ± 373 µg·h/mL
- Cmax [1, 2]: 365 ± 93.6 µg/mL
- Tmax ([1]; 1 g/kg, 1.0 g/kg/dose BID, Day 1, Male): 3.8 h
- Tmax ([1]; 1 g/kg, 1.0 g/kg/dose BID, Day 28, Male): 0.8 h
- AUC(0-t) [1, 3]: 2560 µg·h/mL
- Cmax [1, 3]: 475 µg/mL
- subjects with increase in glycosylation of αDG (Phase 2 patient study; 6 g BID, 3 months): 3 of 4
- average decrease in creatine kinase (Phase 2 patient study; 6 g BID, day 90): 77%
- subjects with increase in glycosylation of αDG (Phase 2 patient study; 6 g QD, 3 months): 4 of 4
- average decrease in creatine kinase (Phase 2 patient study; 6 g QD, day 90): 90%
- average decrease in creatine kinase (Phase 2 patient study; 12 g BID, day 8): 33%
- patients with decrease in patient-reported muscle fatigue (Phase 2 patient study; 90-day treatment period): 7 of 8
- Mean 10MWT (Ambulation) (Phase 2 patient study; Baseline, Cohort 1 (6 g QD)): 2.06 m/sec
- Mean NSAD (Gross Motor Function) (Phase 2 patient study; Baseline, Cohort 1 (6 g QD)): 33.8
- Mean PUL2.0 (Upper Limb Function) (Phase 2 patient study; Baseline, Cohort 1 (6 g QD)): 37.3
- Mean 10MWT (Ambulation) (Phase 2 patient study; Baseline, Cohort 2 (6 g BID)): 1.48 m/sec
- Mean NSAD (Gross Motor Function) (Phase 2 patient study; Baseline, Cohort 2 (6 g BID)): 28.5
- Mean PP Supine FVC (Respiratory Function) (Phase 2 patient study; Baseline, Cohort 2 (6 g BID)): 54.3
- Mean PUL2.0 (Upper Limb Function) (Phase 2 patient study; Baseline, Cohort 2 (6 g BID)): 35.8
- Mean 10MWT (Ambulation) (Phase 2 patient study; Baseline, Overall): 1.77 m/sec
- Mean NSAD (Gross Motor Function) (Phase 2 patient study; Baseline, Overall): 31.1
- Mean PP Supine FVC (Respiratory Function) (Phase 2 patient study; Baseline, Overall): 54.3
- Mean PUL2.0 (Upper Limb Function) (Phase 2 patient study; Baseline, Overall): 36.5
- Mean 10MWT (Ambulation) (Phase 2 patient study; Day 90, Cohort 1 (6 g QD)): 2.82 m/sec
- Mean NSAD (Gross Motor Function) (Phase 2 patient study; Day 90, Cohort 1 (6 g QD)): 33.5
- Mean PP Supine FVC (Respiratory Function) (Phase 2 patient study; Day 90, Cohort 1 (6 g QD)): 79.5
- Mean PUL2.0 (Upper Limb Function) (Phase 2 patient study; Day 90, Cohort 1 (6 g QD)): 37.3
- Mean 10MWT (Ambulation) (Phase 2 patient study; Day 90, Cohort 2 (6 g BID)): 1.56 m/sec
- Mean NSAD (Gross Motor Function) (Phase 2 patient study; Day 90, Cohort 2 (6 g BID)): 29.0
- Mean PP Supine FVC (Respiratory Function) (Phase 2 patient study; Day 90, Cohort 2 (6 g BID)): 50.0
- Mean PUL2.0 (Upper Limb Function) (Phase 2 patient study; Day 90, Cohort 2 (6 g BID)): 36.3
- Mean 10MWT (Ambulation) (Phase 2 patient study; Day 90, Overall): 2.10 m/sec
- Mean NSAD (Gross Motor Function) (Phase 2 patient study; Day 90, Overall): 31.3
- Mean PP Supine FVC (Respiratory Function) (Phase 2 patient study; Day 90, Overall): 64.8
- Mean PUL2.0 (Upper Limb Function) (Phase 2 patient study; Day 90, Overall): 36.8
- Mean 10MWT (Ambulation) (Phase 2 patient study; Delta, Cohort 1 (6 g QD)): 0.10 m/sec
- Mean NSAD (Gross Motor Function) (Phase 2 patient study; Delta, Cohort 1 (6 g QD)): −0.3
- Mean PUL2.0 (Upper Limb Function) (Phase 2 patient study; Delta, Cohort 1 (6 g QD)): 0.0
- Mean 10MWT (Ambulation) (Phase 2 patient study; Delta, Cohort 2 (6 g BID)): 0.08 m/sec
- Mean NSAD (Gross Motor Function) (Phase 2 patient study; Delta, Cohort 2 (6 g BID)): 0.5
- Mean PP Supine FVC (Respiratory Function) (Phase 2 patient study; Delta, Cohort 2 (6 g BID)): −4.3
- Mean PUL2.0 (Upper Limb Function) (Phase 2 patient study; Delta, Cohort 2 (6 g BID)): 0.5
- Mean 10MWT (Ambulation) (Phase 2 patient study; Delta, Overall): 0.09 m/sec
- Mean NSAD (Gross Motor Function) (Phase 2 patient study; Delta, Overall): 0.1
- Mean PP Supine FVC (Respiratory Function) (Phase 2 patient study; Delta, Overall): −4.3
- Mean PUL2.0 (Upper Limb Function) (Phase 2 patient study; Delta, Overall): 0.3
- average increase in glycosylation of αDG (Phase 2 patient study; both cohorts (6 g QD, 6 g BID), 3 months): 13%
- average drop in fatigue (scale of 1 to 10) (Phase 2 patient study; cohort 1 (6 g QD)): 1.3 points
- average drop in fatigue (scale of 1 to 10) (Phase 2 patient study; cohort 2 (6 g BID)): 1.5 points
